Where two headings read alike, the source gives them in different places.
System: patients with locally advanced or metastatic solid tumors
From the text: This was a Phase Ib, multicenter, open-label, dose-finding clinical trial (NCT02610075). […] Three types of treatment schedules were investigated: cohorts bid 1, bid 2, qd 1.1, qd 2.1 and qd 3.1 received bid or qd treatment on a 5/9 schedule (5 days on treatment, followed by 9 days off) on a 14-day cycle. Cohorts qd 1.2, qd 2.2, and qd 3.2 received treatment on a 5/2 schedule (5 days on followed by 2 days off for 2 of 3 weeks) in a 21-day cycle. Cohorts qd 2.3 and qd 3.3 received treatment on a weekly 5/2 schedule in a 21-day cycle (Table 1). The highest dose level(s) at which less than one-third of evaluable patients (none of 3 patients or 1 of 6 patients) experienced a dose-limiting toxicity (DLT) was declared the MTD.
The per protocol analysis set was defined as a subset of the full analysis set, excluding subjects having an important protocol deviation, to be used for analyses of efficacy endpoints if appropriate.

C=CCn1c(=O)c2cnc(Nc3ccc(N4CCN(C)CC4)cc3)nc2n1-c1cccc(C(C)(C)O)n1 [adavosertib, Adavosertib]
Dizziness (treatment-emergent AE) (qd 1.1: 200 mg qd 5/9 (n=5)): 1 (20.0) n (%)
Dyspepsia (treatment-emergent AE) (qd 1.1: 200 mg qd 5/9 (n=5)): 1 (20.0) n (%)
Dyspepsia (treatment-related AE) (qd 1.1: 200 mg qd 5/9 (n=5)): 0 n (%)
Dyspnea (treatment-emergent AE) (qd 1.1: 200 mg qd 5/9 (n=5)): 0 n (%)
Edema peripheral (treatment-emergent AE) (qd 1.1: 200 mg qd 5/9 (n=5)): 0 n (%)
Fall (treatment-emergent AE) (qd 1.1: 200 mg qd 5/9 (n=5)): 0 n (%)
Fatigue (treatment-emergent AE) (qd 1.1: 200 mg qd 5/9 (n=5)): 2 (40.0) n (%)
Fatigue (treatment-related AE) (qd 1.1: 200 mg qd 5/9 (n=5)): 1 (20.0) n (%)
Headache (treatment-emergent AE) (qd 1.1: 200 mg qd 5/9 (n=5)): 1 (20.0) n (%)
Hypokalemia (treatment-emergent AE) (qd 1.1: 200 mg qd 5/9 (n=5)): 0 n (%)
Insomnia (treatment-emergent AE) (qd 1.1: 200 mg qd 5/9 (n=5)): 0 n (%)
Muscle spasms (treatment-emergent AE) (qd 1.1: 200 mg qd 5/9 (n=5)): 0 n (%)
Myalgia (treatment-emergent AE) (qd 1.1: 200 mg qd 5/9 (n=5)): 1 (20.0) n (%)
Myalgia (treatment-related AE) (qd 1.1: 200 mg qd 5/9 (n=5)): 1 (20.0) n (%)
Nausea (treatment-emergent AE) (qd 1.1: 200 mg qd 5/9 (n=5)): 1 (20.0) n (%)
Nausea (treatment-related AE) (qd 1.1: 200 mg qd 5/9 (n=5)): 1 (20.0) n (%)
Neutropenia (treatment-emergent AE) (qd 1.1: 200 mg qd 5/9 (n=5)): 1 (20.0) n (%)
Neutropenia (treatment-related AE) (qd 1.1: 200 mg qd 5/9 (n=5)): 1 (20.0) n (%)
Pneumonia (treatment-emergent AE) (qd 1.1: 200 mg qd 5/9 (n=5)): 0 n (%)
Pyrexia (treatment-emergent AE) (qd 1.1: 200 mg qd 5/9 (n=5)): 1 (20.0) n (%)
Rash (treatment-emergent AE) (qd 1.1: 200 mg qd 5/9 (n=5)): 1 (20.0) n (%)
Thrombocytopenia (treatment-emergent AE) (qd 1.1: 200 mg qd 5/9 (n=5)): 0 n (%)
Thrombocytopenia (treatment-related AE) (qd 1.1: 200 mg qd 5/9 (n=5)): 0 n (%)
Urinary tract infection (treatment-emergent AE) (qd 1.1: 200 mg qd 5/9 (n=5)): 1 (20.0) n (%)
Vomiting (treatment-emergent AE) (qd 1.1: 200 mg qd 5/9 (n=5)): 0 n (%)
Vomiting (treatment-related AE) (qd 1.1: 200 mg qd 5/9 (n=5)): 0 n (%)
Abdominal pain (treatment-emergent AE) (qd 1.2: 200 mg qd 5/2 (n=6)): 2 (33.3) n (%)
Abdominal pain (treatment-related AE) (qd 1.2: 200 mg qd 5/2 (n=6)): 1 (16.7) n (%)
Alanine aminotransferase increased (treatment-emergent AE) (qd 1.2: 200 mg qd 5/2 (n=6)): 1 (16.7) n (%)
Anemia (treatment-emergent AE) (qd 1.2: 200 mg qd 5/2 (n=6)): 2 (33.3) n (%)
Anemia (treatment-related AE) (qd 1.2: 200 mg qd 5/2 (n=6)): 2 (33.3) n (%)
Any AE (treatment-emergent) (qd 1.2: 200 mg qd 5/2 (n=6)): 6 (100) n (%)
Any grade ≥ 3 AE (qd 1.2: 200 mg qd 5/2 (n=6)): 3 (50.0) n (%)
Any treatment-related AE (qd 1.2: 200 mg qd 5/2 (n=6)): 6 (100) n (%)
Any treatment-related grade ≥ 3 AE (qd 1.2: 200 mg qd 5/2 (n=6)): 2 (33.3) n (%)
Asthenia (treatment-emergent AE) (qd 1.2: 200 mg qd 5/2 (n=6)): 0 n (%)
Asthenia (treatment-related AE) (qd 1.2: 200 mg qd 5/2 (n=6)): 0 n (%)
Back pain (treatment-emergent AE) (qd 1.2: 200 mg qd 5/2 (n=6)): 1 (16.7) n (%)
Constipation (treatment-emergent AE) (qd 1.2: 200 mg qd 5/2 (n=6)): 2 (33.3) n (%)
Constipation (treatment-related AE) (qd 1.2: 200 mg qd 5/2 (n=6)): 1 (16.7) n (%)
Cough (treatment-emergent AE) (qd 1.2: 200 mg qd 5/2 (n=6)): 1 (16.7) n (%)
Decreased appetite (treatment-emergent AE) (qd 1.2: 200 mg qd 5/2 (n=6)): 1 (16.7) n (%)
Decreased appetite (treatment-related AE) (qd 1.2: 200 mg qd 5/2 (n=6)): 1 (16.7) n (%)
Dehydration (treatment-emergent AE) (qd 1.2: 200 mg qd 5/2 (n=6)): 2 (33.3) n (%)
Dehydration (treatment-related AE) (qd 1.2: 200 mg qd 5/2 (n=6)): 1 (16.7) n (%)
Diarrhea (treatment-emergent AE) (qd 1.2: 200 mg qd 5/2 (n=6)): 3 (50.0) n (%)
Diarrhea (treatment-related AE) (qd 1.2: 200 mg qd 5/2 (n=6)): 2 (33.3) n (%)
Dizziness (treatment-emergent AE) (qd 1.2: 200 mg qd 5/2 (n=6)): 2 (33.3) n (%)
Dyspepsia (treatment-emergent AE) (qd 1.2: 200 mg qd 5/2 (n=6)): 1 (16.7) n (%)
Dyspepsia (treatment-related AE) (qd 1.2: 200 mg qd 5/2 (n=6)): 1 (16.7) n (%)
Dyspnea (treatment-emergent AE) (qd 1.2: 200 mg qd 5/2 (n=6)): 1 (16.7) n (%)
Edema peripheral (treatment-emergent AE) (qd 1.2: 200 mg qd 5/2 (n=6)): 3 (50.0) n (%)
Fall (treatment-emergent AE) (qd 1.2: 200 mg qd 5/2 (n=6)): 1 (16.7) n (%)
Fatigue (treatment-emergent AE) (qd 1.2: 200 mg qd 5/2 (n=6)): 1 (16.7) n (%)
Fatigue (treatment-related AE) (qd 1.2: 200 mg qd 5/2 (n=6)): 1 (16.7) n (%)
Headache (treatment-emergent AE) (qd 1.2: 200 mg qd 5/2 (n=6)): 2 (33.3) n (%)
Hypokalemia (treatment-emergent AE) (qd 1.2: 200 mg qd 5/2 (n=6)): 0 n (%)
Insomnia (treatment-emergent AE) (qd 1.2: 200 mg qd 5/2 (n=6)): 1 (16.7) n (%)
Muscle spasms (treatment-emergent AE) (qd 1.2: 200 mg qd 5/2 (n=6)): 1 (16.7) n (%)
Myalgia (treatment-emergent AE) (qd 1.2: 200 mg qd 5/2 (n=6)): 3 (50.0) n (%)
Myalgia (treatment-related AE) (qd 1.2: 200 mg qd 5/2 (n=6)): 3 (50.0) n (%)
Nausea (treatment-emergent AE) (qd 1.2: 200 mg qd 5/2 (n=6)): 4 (66.7) n (%)
Nausea (treatment-related AE) (qd 1.2: 200 mg qd 5/2 (n=6)): 4 (66.7) n (%)
Neutropenia (treatment-emergent AE) (qd 1.2: 200 mg qd 5/2 (n=6)): 1 (16.7) n (%)
Neutropenia (treatment-related AE) (qd 1.2: 200 mg qd 5/2 (n=6)): 0 n (%)
Pneumonia (treatment-emergent AE) (qd 1.2: 200 mg qd 5/2 (n=6)): 0 n (%)
Pyrexia (treatment-emergent AE) (qd 1.2: 200 mg qd 5/2 (n=6)): 1 (16.7) n (%)
Rash (treatment-emergent AE) (qd 1.2: 200 mg qd 5/2 (n=6)): 0 n (%)
Thrombocytopenia (treatment-emergent AE) (qd 1.2: 200 mg qd 5/2 (n=6)): 0 n (%)
Thrombocytopenia (treatment-related AE) (qd 1.2: 200 mg qd 5/2 (n=6)): 0 n (%)
Urinary tract infection (treatment-emergent AE) (qd 1.2: 200 mg qd 5/2 (n=6)): 1 (16.7) n (%)
Vomiting (treatment-emergent AE) (qd 1.2: 200 mg qd 5/2 (n=6)): 3 (50.0) n (%)
Vomiting (treatment-related AE) (qd 1.2: 200 mg qd 5/2 (n=6)): 3 (50.0) n (%)
Abdominal pain (treatment-emergent AE) (qd 2.1: 250 mg qd 5/9 (n=4)): 1 (25.0) n (%)
Abdominal pain (treatment-related AE) (qd 2.1: 250 mg qd 5/9 (n=4)): 1 (25.0) n (%)
Alanine aminotransferase increased (treatment-emergent AE) (qd 2.1: 250 mg qd 5/9 (n=4)): 0 n (%)
Anemia (treatment-emergent AE) (qd 2.1: 250 mg qd 5/9 (n=4)): 1 (25.0) n (%)
Anemia (treatment-related AE) (qd 2.1: 250 mg qd 5/9 (n=4)): 0 n (%)
Any AE (treatment-emergent) (qd 2.1: 250 mg qd 5/9 (n=4)): 4 (100) n (%)
Any grade ≥ 3 AE (qd 2.1: 250 mg qd 5/9 (n=4)): 2 (50.0) n (%)
Any treatment-related AE (qd 2.1: 250 mg qd 5/9 (n=4)): 2 (50.0) n (%)
Any treatment-related grade ≥ 3 AE (qd 2.1: 250 mg qd 5/9 (n=4)): 0 n (%)
Asthenia (treatment-emergent AE) (qd 2.1: 250 mg qd 5/9 (n=4)): 0 n (%)
Asthenia (treatment-related AE) (qd 2.1: 250 mg qd 5/9 (n=4)): 0 n (%)
Back pain (treatment-emergent AE) (qd 2.1: 250 mg qd 5/9 (n=4)): 0 n (%)
Constipation (treatment-emergent AE) (qd 2.1: 250 mg qd 5/9 (n=4)): 0 n (%)
Constipation (treatment-related AE) (qd 2.1: 250 mg qd 5/9 (n=4)): 0 n (%)
Cough (treatment-emergent AE) (qd 2.1: 250 mg qd 5/9 (n=4)): 2 (50.0) n (%)
Decreased appetite (treatment-emergent AE) (qd 2.1: 250 mg qd 5/9 (n=4)): 0 n (%)
Decreased appetite (treatment-related AE) (qd 2.1: 250 mg qd 5/9 (n=4)): 0 n (%)
Dehydration (treatment-emergent AE) (qd 2.1: 250 mg qd 5/9 (n=4)): 0 n (%)
Dehydration (treatment-related AE) (qd 2.1: 250 mg qd 5/9 (n=4)): 0 n (%)
Diarrhea (treatment-emergent AE) (qd 2.1: 250 mg qd 5/9 (n=4)): 1 (25.0) n (%)
Diarrhea (treatment-related AE) (qd 2.1: 250 mg qd 5/9 (n=4)): 1 (25.0) n (%)
Dizziness (treatment-emergent AE) (qd 2.1: 250 mg qd 5/9 (n=4)): 0 n (%)
Dyspepsia (treatment-emergent AE) (qd 2.1: 250 mg qd 5/9 (n=4)): 0 n (%)
Dyspepsia (treatment-related AE) (qd 2.1: 250 mg qd 5/9 (n=4)): 0 n (%)
Dyspnea (treatment-emergent AE) (qd 2.1: 250 mg qd 5/9 (n=4)): 0 n (%)
Edema peripheral (treatment-emergent AE) (qd 2.1: 250 mg qd 5/9 (n=4)): 1 (25.0) n (%)
Fall (treatment-emergent AE) (qd 2.1: 250 mg qd 5/9 (n=4)): 0 n (%)
Fatigue (treatment-emergent AE) (qd 2.1: 250 mg qd 5/9 (n=4)): 0 n (%)
Fatigue (treatment-related AE) (qd 2.1: 250 mg qd 5/9 (n=4)): 0 n (%)
Headache (treatment-emergent AE) (qd 2.1: 250 mg qd 5/9 (n=4)): 0 n (%)
Hypokalemia (treatment-emergent AE) (qd 2.1: 250 mg qd 5/9 (n=4)): 0 n (%)
Insomnia (treatment-emergent AE) (qd 2.1: 250 mg qd 5/9 (n=4)): 0 n (%)
Muscle spasms (treatment-emergent AE) (qd 2.1: 250 mg qd 5/9 (n=4)): 0 n (%)
Myalgia (treatment-emergent AE) (qd 2.1: 250 mg qd 5/9 (n=4)): 0 n (%)
Myalgia (treatment-related AE) (qd 2.1: 250 mg qd 5/9 (n=4)): 0 n (%)
Nausea (treatment-emergent AE) (qd 2.1: 250 mg qd 5/9 (n=4)): 0 n (%)
Nausea (treatment-related AE) (qd 2.1: 250 mg qd 5/9 (n=4)): 0 n (%)
Neutropenia (treatment-emergent AE) (qd 2.1: 250 mg qd 5/9 (n=4)): 0 n (%)
Neutropenia (treatment-related AE) (qd 2.1: 250 mg qd 5/9 (n=4)): 0 n (%)
Pneumonia (treatment-emergent AE) (qd 2.1: 250 mg qd 5/9 (n=4)): 0 n (%)
Pyrexia (treatment-emergent AE) (qd 2.1: 250 mg qd 5/9 (n=4)): 1 (25.0) n (%)
Rash (treatment-emergent AE) (qd 2.1: 250 mg qd 5/9 (n=4)): 0 n (%)
Thrombocytopenia (treatment-emergent AE) (qd 2.1: 250 mg qd 5/9 (n=4)): 0 n (%)

From PMC10289903 (Investigational New Drugs, 2023)
